pIC50: −log10 of the molar value. Activity calls are given as the source filed them. No cut-off for these calls is given here.

In this assay the test system is MM1.S. Briefly: Antiproliferative activity against human MM1.S cells assessed as inhibition of cell growth incubated for 72 hrs by celltiter-glo assay. The class given is functional, cell-based.
For the molecule `CNC(=O)/C(=C/n1cnc(-c2cc(C(F)(F)F)cc(C(F)(F)F)c2)n1)c1cncnc1`, the negative logarithm of the IC50 (pIC50) is 6.72.
On the same count and under the same terms, then `NC(=O)/C(=C/n1cnc(-c2cc(C(F)(F)F)cc(C(F)(F)F)c2)n1)c1ccc(C(F)(F)F)nc1`, with 5.78.
In the case of `CN(C)c1ncc(/C(=C\n2cnc(-c3cc(C(F)(F)F)cc(C(F)(F)F)c3)n2)C(N)=O)cn1`, the pIC50 is 5.88.
`O=C(NC1CC1)/C(=C/n1cnc(-c2cc(C(F)(F)F)cc(C(F)(F)F)c2)n1)c1cncnc1`: the pIC50 was 6.75.
Same read-out and setting: then `NC(=O)/C(=C/n1ccc(-c2cc(C(F)(F)F)cc(C(F)(F)F)c2)n1)c1ccc(C(F)(F)F)nc1`, with 5.72.
On the same count and under the same terms, next, `CONC(=O)/C(=C/n1cnc(-c2cc(C(F)(F)F)cc(C(F)(F)F)c2)n1)c1ccn(C)n1`: 5.92.
Still for that read-out and setting: next, `NC(=O)/C(=C/n1ccc(-c2cc(C(F)(F)F)cc(C(F)(F)F)c2)n1)c1cncnc1`: 5.92; `CONC(=O)/C(=C/n1cnc(-c2cc(C(F)(F)F)cc(C(F)(F)F)c2)n1)c1cnc(OC)nc1`: 6.61.
Consider `NC(=O)/C=C(\c1ccc(C(F)(F)F)nc1)c1cnn(-c2cc(C(F)(F)F)cc(C(F)(F)F)c2)c1`, for which the outcome was inactive.
In the case of `NC(=O)/C(=C/n1cnc(-c2cc(C(F)(F)F)cc(C(F)(F)F)c2)n1)c1cncc(F)c1`, the pIC50 was 6.59.
For the molecule `Cc1ccc(/C(=C\c2cnn(-c3cc(C(F)(F)F)cc(C(F)(F)F)c3)c2)C(N)=O)cn1`, the outcome was inactive.
On to `N#Cc1cn(/C=C(/C(N)=O)c2cncnc2)nc1-c1cc(C(F)(F)F)cc(C(F)(F)F)c1`, for which the pIC50 was 5.91.
Consider `O=C(NC12CC3CCC1CC(C3)C2)/C(=C/n1cnc(-c2cc(C(F)(F)F)cc(C(F)(F)F)c2)n1)c1cncnc1` (configuration not stated), for which the negative logarithm of the IC50 (pIC50) was 6.49.
Regarding `CONC(=O)/C(=C/n1cnc(-c2cc(C(F)(F)F)cc(C(F)(F)F)c2)n1)c1ccc(C#N)nc1`, the negative logarithm of the IC50 (pIC50) is 6.73.
Consider `NC(=O)/C=C(\c1cncnc1)c1cnn(-c2cc(C(F)(F)F)cc(C(F)(F)F)c2)c1`, for which the result was inactive.
For `CONC(=O)/C(=C/n1cnc(-c2cc(C(F)(F)F)cc(C(F)(F)F)c2)n1)c1ccc(OC)nc1`, the pIC50 was 6.78.
With `NC(=O)/C(=C/c1cnn(-c2cc(C(F)(F)F)cc(C(F)(F)F)c2)c1)c1ccc(F)nc1`, the outcome was inactive.
Turning to `NC(=O)/C(=C/c1cnn(-c2cc(C(F)(F)F)cc(C(F)(F)F)c2)c1)c1cncnc1`, the pIC50 was 5.76.
With `CN(C)c1ncc(/C(=C\C(N)=O)c2cnn(-c3cc(C(F)(F)F)cc(C(F)(F)F)c3)c2)cn1`, the result was inactive.
Take `CON(C)C(=O)/C(=C/n1cnc(-c2cc(C(F)(F)F)cc(C(F)(F)F)c2)n1)c1cncnc1`: the negative-log IC50 (pIC50) was 7.12.
On to `Cc1ccc(/C(=C\C(N)=O)c2cnn(-c3cc(C(F)(F)F)cc(C(F)(F)F)c3)c2)cn1`, for which the result was inactive.
Regarding `NC(=O)/C(=C/c1cnn(-c2cc(C(F)(F)F)cc(C(F)(F)F)c2)c1)c1ccncc1`, the result was inactive.
For the molecule `O=C(NCc1ccccn1)/C(=C/n1cnc(-c2cc(C(F)(F)F)cc(C(F)(F)F)c2)n1)c1cncnc1`, the pIC50 is 5.82.
The same measure, in the same setting: then `O=C(NNc1cnccn1)/C(=C/n1cnc(-c2cc(C(F)(F)F)cc(C(F)(F)F)c2)n1)c1cncnc1`, with 6.48; and `NC(=O)/C(=C/c1cnn(-c2cc(C(F)(F)F)cc(C(F)(F)F)c2)c1)c1ccc(C(F)(F)F)nc1`, with 5.87.
Turning to `CONC(=O)/C(=C/n1cnc(-c2cc(C(F)(F)F)cc(C(F)(F)F)c2)n1)c1cnc(Cl)nc1`, the negative-log IC50 (pIC50) was 6.31.
On the same count and under the same terms, then `N#Cc1ccc(/C(=C\n2ccc(-c3cc(C(F)(F)F)cc(C(F)(F)F)c3)n2)C(N)=O)cn1`, with 6.06; and `COC(=O)CNC(=O)/C(=C/n1cnc(-c2cc(C(F)(F)F)cc(C(F)(F)F)c2)n1)c1cncnc1`, with 7.00.
Consider `N#Cc1ccc(/C(=C\c2cnn(-c3cc(C(F)(F)F)cc(C(F)(F)F)c3)c2)C(N)=O)cn1`, for which the pIC50 is 5.85.
The same measure, in the same setting: next, `COc1ncc(/C(=C\n2cnc(-c3cc(C(F)(F)F)cc(C(F)(F)F)c3)n2)C(N)=O)cn1`: 6.19; `O=C(NCc1cccnc1)/C(=C/n1cnc(-c2cc(C(F)(F)F)cc(C(F)(F)F)c2)n1)c1cncnc1`: 5.85.
`N#Cc1ccc(/C(=C\n2cnc(-c3cc(C(F)(F)F)cc(C(F)(F)F)c3)n2)C(N)=O)cn1`: the pIC50 was 6.75.
In the case of `CN(C)c1ncc(/C(=C\c2cnn(-c3cc(C(F)(F)F)cc(C(F)(F)F)c3)c2)C(N)=O)cn1`, the result was inactive.
Still for that read-out and setting: then `NC(=O)/C=C(\c1ccc(F)nc1)c1cnn(-c2cc(C(F)(F)F)cc(C(F)(F)F)c2)c1`, with “inactive”; and `Cc1cn(/C=C(/C(N)=O)c2cncnc2)nc1-c1cc(C(F)(F)F)cc(C(F)(F)F)c1`, with “inactive”.
In the case of `NC(=O)/C(=C/n1cnc(-c2cc(C(F)(F)F)nc(C(F)(F)F)c2)n1)c1cncnc1`, the pIC50 was 6.65.
The same measure, in the same setting: then `O=C(NC1CCCCCC1)/C(=C/n1cnc(-c2cc(C(F)(F)F)cc(C(F)(F)F)c2)n1)c1cncnc1`, with 6.49.
On the same count and under the same terms, next, `COc1ncc(/C(=C\c2cnn(-c3cc(C(F)(F)F)cc(C(F)(F)F)c3)c2)C(N)=O)cn1`: 5.65; `NC(=O)/C(=C/c1cnn(-c2cc(C(F)(F)F)cc(C(F)(F)F)c2)c1)c1cncc(F)c1`: 5.63; `NC(=O)/C(=C/n1cnc(-c2cc(C(F)(F)F)cc(C(F)(F)F)c2)n1)c1c[nH]c2ccccc12`: 6.50.
Regarding `NC(=O)/C=C(\c1cncc(F)c1)c1cnn(-c2cc(C(F)(F)F)cc(C(F)(F)F)c2)c1`, the result was inactive.
As for `O=C(NC1CCCC1)/C(=C/n1cnc(-c2cc(C(F)(F)F)cc(C(F)(F)F)c2)n1)c1cncnc1`, the negative logarithm of the IC50 (pIC50) was 6.54.
On the same count and under the same terms, next, `NC(=O)/C(=C/n1cnc(-c2cc(C(F)(F)F)cc(C(F)(F)F)c2)n1)c1cccc2cccnc12`: 6.35.
Regarding `Cc1ccc(/C(=C\n2cnc(-c3cc(C(F)(F)F)cc(C(F)(F)F)c3)n2)C(N)=O)cn1`, the outcome was inactive.
Turning to `CONC(=O)/C(=C/n1cnc(-c2cc(C(F)(F)F)nc(C(F)(F)F)c2)n1)c1cncnc1`, the negative logarithm of the IC50 (pIC50) is 6.70.
On to `NC(=O)/C=C(\c1ccncc1)c1cnn(-c2cc(C(F)(F)F)cc(C(F)(F)F)c2)c1`, for which the result was inactive.
As for `Cc1ccc(/C(=C\n2cnc(-c3cc(C(F)(F)F)nc(C(F)(F)F)c3)n2)C(N)=O)cn1`, the negative-log IC50 (pIC50) is 6.61.
Consider `NC(=O)/C(=C/n1cnc(-c2cc(C(F)(F)F)cc(C(F)(F)F)c2)n1)c1ccncc1`, for which the negative-log IC50 (pIC50) is 6.89.
`O=C(NC1CCCCC1)/C(=C/n1cnc(-c2cc(C(F)(F)F)cc(C(F)(F)F)c2)n1)c1cncnc1`: the pIC50 was 6.24.
The same measure, in the same setting: then `CONC(=O)/C(=C/n1cnc(-c2cc(C(F)(F)F)nc(C(F)(F)F)c2)n1)c1ccc(C)nc1`, with 6.68; and `CONC(=O)/C(=C/n1cnc(-c2cc(OC(=O)CCNC(=O)CCCC[C@@H]3SC[C@@H]4NC(=O)N[C@@H]43)cc(C(F)(F)F)c2)n1)c1cncnc1`, with 5.77.
On the same count and under the same terms, next, `CONC(=O)/C(=C/n1cnc(-c2cc(C(F)(F)F)cc(C(F)(F)F)c2)n1)c1ccc(C#N)cc1`: 5.98; `NC(=O)/C(=C/n1cnc(-c2cc(C(F)(F)F)cc(C(F)(F)F)c2)n1)c1ccc(F)nc1`: 5.83.
Consider `CC(C)(C)NNC(=O)/C(=C/n1cnc(-c2cc(C(F)(F)F)cc(C(F)(F)F)c2)n1)c1cncnc1`, for which the negative-log IC50 (pIC50) was 6.48.
On the same count and under the same terms, next, `O=C(NC1CCOCC1)/C(=C/n1cnc(-c2cc(C(F)(F)F)cc(C(F)(F)F)c2)n1)c1cncnc1`: 6.85; `NC(=O)/C(=C/n1ccc(-c2cc(C(F)(F)F)cc(C(F)(F)F)c2)n1)c1ccncc1`: 5.84.
Same read-out and setting: next, `CCONC(=O)/C(=C/n1cnc(-c2cc(C(F)(F)F)cc(C(F)(F)F)c2)n1)c1cncnc1`: 6.95.
On to `COc1ncc(/C(=C\C(N)=O)c2cnn(-c3cc(C(F)(F)F)cc(C(F)(F)F)c3)c2)cn1`, for which the result was inactive.
On to `CONC(=O)/C(=C/n1cnc(-c2cc(C(F)(F)F)cc(C(F)(F)F)c2)n1)c1ccncc1`, for which the negative logarithm of the IC50 (pIC50) is 6.70.
On the same count and under the same terms, next, `CONC(=O)/C(=C/n1cnc(-c2cc(C(F)(F)F)cc(C(F)(F)F)c2)n1)c1ccsc1`: 6.00.
For `N#Cc1ccc(/C(=C\C(N)=O)c2cnn(-c3cc(C(F)(F)F)cc(C(F)(F)F)c3)c2)cn1`, the outcome was inactive.
For the molecule `NC(=O)/C(=C/n1cnc(-c2cc(C(F)(F)F)cc(C(F)(F)F)c2)n1)c1ccccc1`, the negative-log IC50 (pIC50) is 6.46.

Source of the values: ChEMBL document CHEMBL6083277, “Discovery of SZJK-0421: A Novel Potent, Low Toxicity, Selective Second Generation of CRM1 Inhibitor for the Treatment of Both Hematological and Solid Tumors” (J Med Chem, 2024).
